In brackets after ≈: the same amount, converted by molar mass. Entries after “also recorded” stand apart in the source; their conditions may differ. Where two headings read alike, the source gives them in different places.
What was measured:
[1] = Study 204953 Part 2: repeat dosing for 11 days with RTV QD or 200 mg BID unboosted; assay type: in vivo, human; details: for CL/F / Cmax / AUC / half-life: geometric mean (95% CI); for Cmax / Tmax / AUC / concentration at 24 h / half-life / concentration at 12 h: human, plasma, oral; for AUC: read-out: AUC(0‐τ); for half-life: read-out: t½ (converted); for dose proportionality (C max and AUC): repeat QD dosing 20‐200 mg with RTV for 11 days, PiB or capsules
Experimental: This study was planned as an extension of the previously conducted single‐ and multiple‐dose escalation studies described above. It was a double‐blind, placebo‐controlled, single and repeat dose escalation study of micronized API GSK2838232 with RTV conducted in three parts (Part 1A, Part 1B, and Part 2).
In Part 2, GSK2838232 was given to separate cohorts as once‐daily 20, 50, 100, and 200 mg doses with RTV for 11 days, with GSK2838232 and RTV dosing starting at the same time (i.e., no RTV predosing). GSK2838232 was administered as PiB for the 20 and 50 mg cohorts and as the capsule formulation for the 100 and 200 mg cohorts. Another separate cohort of subjects received GSK2838232 alone (i.e., unboosted) at a dose of 200 mg twice‐daily (BID; given every 12 hours) for 11 days using the capsule formulation to assess trough concentrations without RTV co‐administration.
(§1) Blood samples were taken via an indwelling cannula or by direct venipuncture, collected into a di‐potassium ethylenediaminetetraacetic acid (K2 EDTA) tube, and placed on wet ice. Samples were centrifuged at approximately 1500g for 10 minutes at approximately 4°C. Exactly 500 μL of the resulting plasma was transferred into labeled 1.4 mL Matrix TrakMate Tubes containing exactly 500 μL of 50 mmol/L citrate buffer, pH 4.0, and mixed well. When 500 μL of plasma was not able to be transferred, the ratio of plasma to citrate buffer was kept at 1:1. Buffered plasma samples were kept on ice and frozen at −70°C within 1 hour of collection. Plasma samples were analyzed for GSK2838232 using a validated analytical method based on protein precipitation, followed by high performance liquid chromatography with tandem mass spectrometry (HPLC/MS/MS) analysis.
(§2) Extracts were analyzed using HPLC (Shimadzu, Nexera, 30 series) and tandem mass spectrometry detection (HPLC‐MS/MS). The mass spectrometer used was an API‐5500 using IonSpray interface (500 V) in positive mode monitoring. The mass transitions were 809.5 to 255.1 and 816.5 to 262.1 for GSK2838232 and [2H7] GSK2838232 (the isotopically labeled internal standard), respectively. The chromatographic conditions utilized a Waters Acquity UPLC BEH C18 column (50 × 2.1 mm, 1.7 μm) with mobile phases consisting of 1 mmol/L ammonium formate:formic acid (100:0.005) (mobile phase A) and acetonitrile:formic acid (100:0.1) (mobile phase B) at a flow rate of 0.6 mL/min, with pump B at 63% held for 2 minutes. The assay was validated to have precision (%RSD) of 0.7%‐6.5% (within‐run) and 1.0%‐5.9% RSD (between‐run) and with accuracy (%bias) of 0.0%‐1.6%. […] The lower limit of quantification (LLQ) was 0.5 ng/mL, using a 50 μL aliquot of K2EDTA acidified plasma. The higher limit of quantification (HLQ) was 500 ng/mL.
(§3) The PK parameters were calculated by standard noncompartmental analysis based on actual sampling times using WinNonlin Version 6.3 or higher. Estimation of AUC used the linear up/log down trapezoidal rule.

[2] = preclinical; cited from earlier work
[3] = Study 200207: repeat dose 20-50 mg QD for 8 days, SDD, healthy subjects; assay type: in vivo, human
Experimental: This study was conducted in parallel with Study 200912 and was planned as a two‐part, double‐blind, placebo‐controlled, repeat dose escalation study of GSK2838232 with and without RTV for 8‐11 days. Subjects were randomized 3:1 to receive GSK2838232 or placebo. Part A was designed to evaluate GSK2838232 given alone for 8 days (20 mg and 50 mg GSK2838232 once‐daily (QD) for 8 days, respectively) and Part B was designed to evaluate GSK2838232 when co‐administered with 100 mg RTV QD for 11 days. Because of the occurrence of an SAE that was eventually determined to be unlikely to be related to GSK2838232 (see Safety discussion), the study was terminated early after one cohort in Part B (10 mg GSK2838232 + 100 mg RTV QD) had completed only 5 days of the planned 11‐day regimen.
as §1, §2, §3

HIV‐1 = test system: HIV‐1; set-up: method as in earlier work; details: cited from earlier work
[4] = in vitro, across all species; cited from earlier work
[5] = Study Day 11, 20 mg QD + RTV (PiB), Study 204953
[6] = Study Day 11, 50 mg QD + RTV (PiB), Study 204953
[7] = Study Day 11, 100 mg QD + RTV (capsules), Study 204953
[8] = Study Day 11, 200 mg QD + RTV (capsules), Study 204953
[9] = 200 mg, Study Day 11, 200 mg bid without RTV (capsules), Study 204953
[10] = relative to first dose following predosing ritonavir to steady‐state
[11] = repeated daily dosing with 50 mg, unboosted

Structure (SMILES): CC(C)C1=C2[C@H]3CC[C@@H]4[C@@]5(C)CC[C@H](OC(=O)CC(C)(C)C(=O)O)C(C)(C)[C@@H]5CC[C@@]4(C)[C@]3(C)CC[C@@]2([C@@H](O)CN(CCN(C)C)Cc2ccc(Cl)cc2)CC1=O [GSK2838232]
- steady‐state C24 as multiple of PA‐IC90 ([1]; 200 mg BID unboosted, PA‐IC90 5 ng/mL): ~ 8 fold
- steady‐state C24 of 200 mg BID without RTV compared with 50 mg QD with RTV ([1]; Study 204953): similar
- CL/F [1, 5]: 44.5 (29.5, 67.3) L/h
- CL/F [1, 6]: 46.0 (35.7, 59.2) L/h
- CL/F [1, 7]: 41.5 (30.7, 56.1) L/h
- CL/F [1, 8]: 49.8 (30.3, 81.9) L/h
- CL/F ([1]; Study Day 11, 200 mg bid without RTV (capsules), Study 204953): 269 (182, 399) L/h
- Cmax ([1]; 20 mg, Study day 1, 20 mg QD + RTV (PiB), Study 204953): 11.1 ng/mL
- Tmax ([1]; 20 mg, Study day 1, 20 mg QD + RTV (PiB), Study 204953, median (range)): 3.74 h
- AUC ([1]; 20 mg, Study day 1, 20 mg QD + RTV (PiB), τ = 24 hours, Study 204953): 175 ng·h/mL
- concentration at 24 h ([1]; 20 mg, Study day 1, 20 mg QD + RTV (PiB), τ = 24 hours, Study 204953, median (range), read-out: Cτ): 6.09 ng/mL
- Cmax ([1]; 50 mg, Study day 1, 50 mg QD + RTV (PiB), Study 204953): 17.1 ng/mL
- Tmax ([1]; 50 mg, Study day 1, 50 mg QD + RTV (PiB), Study 204953, median (range)): 2.5 h
- AUC ([1]; 50 mg, Study day 1, 50 mg QD + RTV (PiB), τ = 24 hours, Study 204953): 265 ng·h/mL
- concentration at 24 h ([1]; 50 mg, Study day 1, 50 mg QD + RTV (PiB), τ = 24 hours, Study 204953, median (range), read-out: Cτ): 11.1 ng/mL
- Cmax ([1]; 100 mg, Study day 1, 100 mg QD + RTV (capsules), Study 204953): 46.2 ng/mL
- Tmax ([1]; 100 mg, Study day 1, 100 mg QD + RTV (capsules), Study 204953, median (range)): 2.25 h
- AUC ([1]; 100 mg, Study day 1, 100 mg QD + RTV (capsules), τ = 24 hours, Study 204953): 635 ng·h/mL
- concentration at 24 h ([1]; 100 mg, Study day 1, 100 mg QD + RTV (capsules), τ = 24 hours, Study 204953, median (range), read-out: Cτ): 22.7 ng/mL
- concentration at 24 h ([1]; 200 mg, 200 mg BID unboosted, read-out: steady‐state C24 mean concentration): 39 ng/mL
- Cmax [1, 9]: 96.1 ng/mL
- half-life [1, 9]: 19.4 h
- Tmax ([1]; 200 mg, Study Day 11, 200 mg bid without RTV (capsules), Study 204953, median (range)): 3.76 h
- AUC ([1]; 200 mg, Study Day 11, 200 mg bid without RTV (capsules), τ = 12 hours, Study 204953): 742 ng·h/mL
- concentration at 12 h ([1]; 200 mg, Study Day 11, 200 mg bid without RTV (capsules), τ = 12 hours, Study 204953, median (range), read-out: Cτ): 38.4 ng/mL
- Cmax ([1]; 200 mg, Study day 1, 200 mg QD + RTV (capsules), Study 204953): 75 ng/mL
- Tmax ([1]; 200 mg, Study day 1, 200 mg QD + RTV (capsules), Study 204953, median (range)): 2.25 h
- AUC ([1]; 200 mg, Study day 1, 200 mg QD + RTV (capsules), τ = 24 hours, Study 204953): 1060 ng·h/mL
- concentration at 24 h ([1]; 200 mg, Study day 1, 200 mg QD + RTV (capsules), τ = 24 hours, Study 204953, median (range), read-out: Cτ): 40.1 ng/mL
- Cmax ([1]; 200 mg, Study day 1, 200 mg bid without RTV (capsules), Study 204953): 48.5 ng/mL
- Tmax ([1]; 200 mg, Study day 1, 200 mg bid without RTV (capsules), Study 204953, median (range)): 3.74 h
- AUC ([1]; 200 mg, Study day 1, 200 mg bid without RTV (capsules), τ = 12 hours, Study 204953): 267 ng·h/mL
- concentration at 12 h ([1]; 200 mg, Study day 1, 200 mg bid without RTV (capsules), τ = 12 hours, Study 204953, median (range), read-out: Cτ): 20 ng/mL
- Cmax [1, 5]: 25.3 ng/mL
- half-life [1, 5]: 19.8 h
- Tmax ([1]; Study Day 11, 20 mg QD + RTV (PiB), Study 204953, median (range)): 5.98 h
- AUC ([1]; Study Day 11, 20 mg QD + RTV (PiB), τ = 24 hours, Study 204953): 449 ng·h/mL
- concentration at 24 h ([1]; Study Day 11, 20 mg QD + RTV (PiB), τ = 24 hours, Study 204953, median (range), read-out: Cτ): 17 ng/mL
- Cmax [1, 6]: 56.6 ng/mL
- half-life [1, 6]: 20.5 h
- Tmax ([1]; Study Day 11, 50 mg QD + RTV (PiB), Study 204953, median (range)): 3.75 h
- AUC ([1]; Study Day 11, 50 mg QD + RTV (PiB), τ = 24 hours, Study 204953): 1090 ng·h/mL
- concentration at 24 h ([1]; Study Day 11, 50 mg QD + RTV (PiB), τ = 24 hours, Study 204953, median (range), read-out: Cτ): 40.8 ng/mL
- Cmax [1, 7]: 130 ng/mL
- half-life [1, 7]: 17.7 h
- Tmax ([1]; Study Day 11, 100 mg QD + RTV (capsules), Study 204953, median (range)): 3.25 h
- AUC ([1]; Study Day 11, 100 mg QD + RTV (capsules), τ = 24 hours, Study 204953): 2410 ng·h/mL
- concentration at 24 h ([1]; Study Day 11, 100 mg QD + RTV (capsules), τ = 24 hours, Study 204953, median (range), read-out: Cτ): 89.3 ng/mL
- Cmax [1, 8]: 225 ng/mL
- half-life [1, 8]: 18 h
- Tmax ([1]; Study Day 11, 200 mg QD + RTV (capsules), Study 204953, median (range)): 3.25 h
- AUC ([1]; Study Day 11, 200 mg QD + RTV (capsules), τ = 24 hours, Study 204953): 4010 ng·h/mL
- concentration at 24 h ([1]; Study Day 11, 200 mg QD + RTV (capsules), τ = 24 hours, Study 204953, median (range), read-out: Cτ): 142 ng/mL
- reduction of Day 1 AUC without ritonavir predosing [1, 10]: ~25%
- reduction of Day 1 C max without ritonavir predosing [1, 10]: ~25%
- dose proportionality (C max and AUC) [1]: proportional PK; also recorded: dose proportional
- dose proportionality (C max and AUC) ([1]; listed as GSK2383232): proportional pharmacokinetics
- metabolism pathways [2]: Phase I oxidation (primarily by cytochrome P450 [CYP] 3A4) and Phase II glucuronidation
- urinary excretion of drug‐related material [2]: ≤ 1 % administered dose
- relatedness of the two cardiovascular events ([3]; Study 200207, after expert evaluation): the likelihood of a relationship was very low
- cardiovascular finding: arrhythmia ([3]; Study 200207, one subject, 39 hours after last of eight daily 50 mg doses): a nonsustained ventricular tachycardia (NSVT) that was associated with dyspnea in another
- cardiovascular finding: troponin ([3]; Study 200207, one subject, second day of dosing with 20 mg): a mild troponin elevation in one subject
- concentration at 39 hours ([3]; human, plasma, oral, one subject, 39 hours after the last of eight daily 50 mg doses, read-out: plasma concentration at the time of the NSVT event): < 1 ng/mL
- half-life ([3]; human, plasma, oral, without boosting, repeat dosing, read-out: t½ (converted)): ~15 h
- accumulation ratio based on AUC [3, 11]: 1.2
- accumulation ratio based on C max [3, 11]: 1.1
- accumulation ratio based on Cτ [3, 11]: 1.4
- time to steady state ([3]; unboosted): 3 days
- dose proportionality of AUC and C max ([3]; unboosted, 20 mg and 50 mg QD for 8 days): slightly less than dose‐proportional
- increase in AUC and C max after a 2.5‐fold dose ([3]; unboosted, 20 mg to 50 mg QD for 8 days): approximately 2 fold
- shift in IC90 with human serum albumin added (HIV‐1; assays to which human serum albumin was added): no significant shift
- IC90 in cell‐based assays (termed PA‐IC90, protein‐adjusted 90% inhibitory concentration) (HIV‐1; calculated): 5 ng/mL (≈ 6.18 nM)
- IC90 (HIV‐1; calculated, read-out: IC90 in cell‐based assays): 6.4 nM
- activity to viruses with key resistance mutations (HIV‐1; panel of viruses): retains activity
- plasma protein binding [4]: > 99.9%

— PMC5989765, “The safety, tolerability, and pharmacokinetic profile of GSK2838232, a novel 2nd generation HIV maturation inhibitor, as assessed in healthy subjects” (Pharmacology Research & Perspectives, 2018)
